# Assay results reported in patent US7361665B2, “Inhibitors of c-Jun N-terminal kinases (JNK) and other protein kinases” (Vertex Pharmaceuticals Incorporated, priority 2002, dated 2008).
# How the values were obtained:
# JNK3 = molecular target: T1, JNK3 (Homo sapiens, UniProt P53779); experiment: JNK inhibition assay (spectrophotometric coupled-enzyme assay); assay type: biochemical; conditions: activated JNK3 10 nM, 10 μM ATP, 30° C.; read-out: JNK3 Activity (Ki rating)
# T1 construct: One such construct encodes amino acid residues Ser40-Glu402 of JNK3α1 and is preceded by Met and Gly residues; Met-Gly dipeptide (initiation Met plus Gly added for the NcoI site) (N); made in house; host or cells: E. coli BL21 (DE3)
# Source text: A BLAST search of the EST database using the published JNK3α1 cDNA as a query identified an EST clone (#632588) that contained the entire coding sequence for human JNK3α1. Polymerase chain reactions (PCR) using pfu polymerase (Strategene) were used to introduce restriction sites into the cDNA for cloning into the pET-15B expression vector at the NcoI and BamHI sites. The protein was expressed in E. coli. Due to the poor solubility of the expressed full-length protein (Met 1-Gln 422), an N-terminally truncated protein starting at Ser residue at position 40 (Ser 40) was produced. This truncation corresponds to Ser 2 of JNK1 and JNK2 proteins, and is preceded by a methionine (initiation) and a glycine residue. The glycine residue was added in order to introduce an NcoI site for cloning into the expression vector. In addition, systematic C-terminal truncations were performed by PCR to identify a construct that give rise to diffraction-quality crystals. One such construct encodes amino acid residues Ser40-Glu402 of JNK3α1 and is preceded by Met and Gly residues.
# Five mg of JNK3 was diluted to 0.5 mg/ml in 50 mM HEPES buffer, pH 7.5, containing 100 mM NaCl, 5 mM DTT, 20 mM MgCl2 and 1 mM ATP. GST-MKK7(DD) was added at a molar ratio of 1:2.5 GST-MKK7:JNK3. After incubation for 30 minutes at 25° C., the reaction mixture was concentrated 5-fold by ultrafiltration in a Centriprep-30 (Amicon, Beverly, Mass.), diluted to 10 ml and an additional 1 mM ATP added. This procedure was repeated three times to remove ADP and replenish ATP. The final addition of ATP was 5 mM and the mixture incubated overnight at 4° C.
# The activated JNK3/GST-MKK7(DD) reaction mixture was exchanged into 50 mM HEPES buffer, pH 7.5, containing 5 mM DTT and 5% glycerol (w/v) by dialysis or ultrafiltration. The reaction mixture was adjusted to 1.1 M potassium phosphate, pH 7.5, and purified by hydrophobic interaction chromatography (at 25° C.) using a Rainin Hydropore column. […] Activated JNK3 (i.e. doubly phosphorylated JNK3) was stored at −70° C. at 0.25-1 mg/ml.
# Compounds were assayed for the inhibition of JNK3 by a spectrophotometric coupled-enzyme assay. In this assay, a fixed concentration of activated JNK3 (10 nM) was incubated with various concentrations of a potential inhibitor dissolved in DMSO for 10 minutes at 30° C. in a buffer containing 0.1 M HEPES buffer, pH 7.5, containing 10 mM MgCl2, 2.5 mM phosphoenolpyruvate, 200 μM NADH, 150 μg/mL pyruvate kinase, 50 μg/mL lactate dehydrogenase, and 200 μM EGF receptor peptide. The EGF receptor peptide has the sequence […] (SEQ ID NO: 3), and is a phosphoryl acceptor in the JNK3-catalyzed kinase reaction. The reaction was initiated by the addition of 10 μM ATP and the assay plate is inserted into the spectrophotometer's assay plate compartment that was maintained at 30° C. The decrease of absorbance at 340 nm was monitored as a function of time. The rate data as a function of inhibitor concentration was fitted to competitive inhibition kinetic model to determine the Ki.
# The compound numbers correspond to the compound numbers in Tables 1-3.
# human Lck kinase = experiment: Lck inhibition assay (radioactivity-based assay A or spectrophotometric assay B); assay type: biochemical
# Procedure: The compounds of this invention can be evaluated as inhibitors of human Lck kinase using either a radioactivity-based assay or spectrophotometric assay.
# The compounds are assayed as inhibitors of full length bovine thymus Lck kinase (from Upstate Biotechnology, cat. no. 14-106) expressed and purified from baculo viral cells. Lck kinase activity is monitored by following the incorporation of ^33P from ATP into the tyrosine of a random poly Glu-Tyr polymer substrate of composition, Glu:Tyr=4:1 (Sigma, cat. no. P-0275). The following are the final concentrations of the assay components: 0.025 M HEPES, pH 7.6, 10 mM MgCl2, 2 mM DTT, 0.25 mg/ml BSA, 10 μM ATP (1-2 μCi ^33P-ATP per reaction), 5 mg/ml poly Glu-Tyr, and 1-2 units of recombinant human […] kinase. In a typical assay, all the reaction components with the exception of ATP are pre-mixed and aliquoted into assay plate wells. […] The plates are sealed and the amount of radioactivity associated with the filters is quantified on a TopCount scintillation counter. The radioactivity incorporated is plotted as a function of the inhibitor concentration. […]
# In a typical assay, all the reaction components with the exception of ATP are pre-mixed and aliquoted into assay plate wells. […] The absorbance change at 340 nm with time, the rate of the reaction, is monitored on a molecular devices plate reader. […]
# T1 sequence (P53779 40-402): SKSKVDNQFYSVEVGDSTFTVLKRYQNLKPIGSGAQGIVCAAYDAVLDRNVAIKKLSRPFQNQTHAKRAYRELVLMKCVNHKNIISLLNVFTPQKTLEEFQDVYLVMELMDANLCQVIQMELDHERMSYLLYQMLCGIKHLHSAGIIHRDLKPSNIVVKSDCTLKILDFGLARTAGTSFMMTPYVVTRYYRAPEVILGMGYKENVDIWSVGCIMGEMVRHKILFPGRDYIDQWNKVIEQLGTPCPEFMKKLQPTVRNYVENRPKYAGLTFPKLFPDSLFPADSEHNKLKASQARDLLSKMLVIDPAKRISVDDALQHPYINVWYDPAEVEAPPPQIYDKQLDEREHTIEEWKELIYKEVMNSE
smiles,measurement,setting,value
Cc1nc(-c2cccs2)sc1-c1ccnc(Nc2ccc(S(N)(=O)=O)cc2)n1 [IIc-22],Ki,JNK3,< 100 nM
same,Ki,human Lck kinase,< 100 nM
